Measured values from patent US11117894B2, “Pyridopyrazine compounds and uses thereof” (CITY OF HOPE, priority 2017, dated 2021).

What was measured:
[1] = tested on: DU145 prostate cancer; test: MTS cell viability assay, DU145 prostate cancer cell line; format: cell-based; conditions: DU145 prostate, 48 h; for Viability (% CTL) at 10 μM DU145 prostate: Table 2; for Viability % CTL DU145 prostate: Table 1, screened at 10 μM; for Viability % CTL DU145 prostate (10 μM ): Table 4
Method: (§1) MTS assays were performed for cell viability. To determine if novel pyridopyrazine derivatives have antitumor activities, compounds were screened at 10 μM final concentration with A2058 melanoma and DU145 prostate cancer cell lines. Compounds #16 and #17 were selected to determine IC50 values against lung cancer cell lines, including A549, DMS273, H69, H513, H2461, DMS114, H358 and H2596. In this assay, cells (5000/well) were seeded in 96-well plates, incubated overnight at 37° C. in 5% CO2, and exposed to 10 μM of compounds or in a dose-dependent manner for 48 h. After 48 h treatment with compounds, MTS dye (20 μL/well) was added to 96-well plates. Viable cell numbers were determined by tetrazolium conversion to its formazan dye. Absorbance was measured at 490 nm using an automated ELISA plate reader. Dimethyl sulfoxide (DMSO) was used as the vehicle control. Each experiment was conducted in triplicate. IC50 values were determined using CalcuSyn software (Biosoft).

[2] = tested on: A2058 melanoma; test: MTS cell viability assay, A2058 melanoma cell line; format: cell-based; conditions: 48 h; for Viability (% CTL) at 10 μM A2058 melanoma: Table 2, 10 μM; for Viability % CTL A2058 melanoma: Table 1, screened at 10 μM; for Viability % CTL A2058 melanoma (10 μM): Table 4, 10 μM
Method: as §1

SMILES | Viability (% CTL) at 10 μM DU145 prostate [1] | Viability (% CTL) at 10 μM A2058 melanoma [2] | Viability % CTL DU145 prostate [1] | Viability % CTL A2058 melanoma [2] | also measured
Cc1nc2nc(Nc3ccccc3)cnc2cc1NC(=O)c1ccc(N)cc1 [Compound 13, 4-Amino-N-(6-methyl-3-(phenylamino)pyrido[2,3-b]pyrazin-7-yl)benzamide] | 77 % CTL | 84 % CTL | – | – | melting point: 265 °C
Cc1nc2nc(Nc3ccccc3)cnc2cc1N [Compound 7, 6-Methyl-N^3-phenylpyrido[2,3-b]pyrazine-3,7-diamine] | 76 % CTL | 98 % CTL | – | – | melting point: > 300 °C (dec.)
COc1cc(C(=O)Nc2cc3ncc(Nc4ccccc4)nc3nc2C)cc(OC)c1OC [Compound 11, 3,4,5-Trimethoxy-N-(6-methyl-3-(phenylamino)pyrido[2,3-b]pyrazin-7-yl)benzamide] | 105 % CTL | 83 % CTL | – | – | –
Cc1nc2nc(Nc3ccccc3)cnc2cc1NC(=O)c1ccccc1 [Compound 8, N-(6-Methyl-3-(phenylamino)pyrido[2,3-b]pyrazin-7-yl)benzamide] | 90 % CTL | 81 % CTL | – | – | –
Cc1nc2nc(Nc3ccccc3)cnc2cc1NC(=O)CNc1ccccc1 [Compound 26E] | 85 % CTL | 93 % CTL | – | – | –
Cc1nc2nc(Nc3ccccc3)cnc2cc1NC(=O)Nc1ccccc1 [Compound 15, 1-(6-Methyl-3-(phenylamino)pyrido[2,3-b]pyrazin-7-yl)-3-phenylurea] | 4 % CTL | 5 % CTL | – | – | –
Cc1nc2nc(Oc3ccccc3)cnc2cc1[N+](=O)[O-] [Compound 55C] | – | – | 95 % CTL | 91 % CTL | –
Cc1nc2nccnc2cc1NC(=O)CN1CCN(C)CC1 [Compound 13A] | – | – | 86 % CTL | 94 % CTL | –
Cc1nc2nccnc2cc1NC(=O)Nc1cccc(C(F)(F)F)c1 [Compound 17A] | – | – | 98 % CTL | 79 % CTL | –
Cc1nc2nc(Oc3ccccc3)cnc2cc1N [Compound 56D] | – | – | 108 % CTL | 81 % CTL | –
Cc1nc2nc(Nc3ccc(C(=O)O)cc3)cnc2cc1NC(=O)Nc1cccc(C(F)(F)F)c1 [Compound 36, 4-((6-Methyl-7-(3-(3-(trifluoromethyl)phenyl)ureido)pyrido[2,3-b]pyrazin-3-yl)amino)benzoic acid] | – | – | – | – | Viability % CTL DU145 prostate (10 μM ) [1]: 77 % CTL; Viability % CTL A2058 melanoma (10 μM) [2]: 113 % CTL
COc1cc(Nc2cnc3cc(NC(=O)Nc4cccc(C(F)(F)F)c4)c(C)nc3n2)cc(OC)c1OC [Compound 34, 1-(6-Methyl-3-((3,4,5-trimethoxyphenyl)amino)pyrido[2,3-b]pyrazin-7-yl)-3-(3-(trifluoromethyl)phenyl)urea] | – | – | – | – | Viability % CTL DU145 prostate (10 μM ) [1]: 81 % CTL; Viability % CTL A2058 melanoma (10 μM) [2]: 116 % CTL
Cc1nc2nc(Sc3ccccc3)cnc2cc1NC(=O)c1cccc(C(F)(F)F)c1 [Compound 15B] | – | – | 113 % CTL | 61 % CTL | –
Cc1nc2nccnc2cc1NC(=S)NCc1ccccc1 [Compound 18A] | – | – | 89 % CTL | 74 % CTL | –
Cc1nc2nccnc2cc1NC(=O)CN(C)C [Compound 14A] | – | – | 101 % CTL | 106 % CTL | –
COc1cc(C(=O)Nc2cc3nccnc3nc2C)cc(OC)c1OC [Compound 07A] | – | – | 122 % CTL | 82 % CTL | –
CC(=O)Nc1ccc(Nc2cnc3cc(NC(=O)Nc4ccc(F)c(Cl)c4)c(C)nc3n2)cc1 [Compound 32, N-(4-((7-(3-(3-Chloro-4-fluorophenyl)ureido)-6-methylpyrido[2,3-b]pyrazin-3-yl)amino)phenyl)acetamide] | – | – | – | – | Viability % CTL DU145 prostate (10 μM ) [1]: 76 % CTL; Viability % CTL A2058 melanoma (10 μM) [2]: 65 % CTL
